Experimental data: patent US20250339391A1, “METHODS FOR EFFECTIVE MANAGEMENT OF PAIN” (South Rampart Pharma, Inc., priority 2024, published 2025)

Experiment: LC-MS/MS detection of D10-SRP-001 in rat brain (PAG)
Assay type: in vivo
Details: 30 min after IP injection
Experimental: Deuterated compound D10-SRP-001 was synthesized by Olon Ricerca Bioscience (Concord, OH), and purity was determined to be >99.9% by HPLC. This was used as pure analytical standard for detection of SRP-001 using an LC-MS/MS method. Similarly, pure analytical standard of AM404 (10 ng/mL) obtained from Cayman Chemical (Ann Arbor, MI) was used to characterize the full fragmentation pattern of AM404. […] Thirty min post-injection, the animals were sacrificed (same as in the CFA/von Frey model), their brains harvested, and the midbrain periaqueductal gray (PAG) region excised. SRP-001 or AM404 were extracted from the PAG using a liquid-liquid extraction method using 1:1 MeOH:H2O for LC-MS/MS and were loaded onto a liquid chromatography-tandem mass spectrophotometer for analysis. The mass spectrophotometer was operated in multiple reaction monitoring (MRM) mode using positive ion electrospray. D10-SRP-001 was detected by monitoring the m/z transition 416→186. AM404 was detected by monitoring the m/z transition 396→287.

SMILES: [2H]C([2H])([2H])C([2H])([2H])N(C(=O)c1ccccc1S(=O)(=O)NCC(=O)Nc1ccc(O)cc1)C([2H])([2H])C([2H])([2H])[2H] [D10-SRP-001]
- detection in the brain: detected in the brain
